Results: patent publication US6794412B1, “Treatment of thrombosis by combined use of a factor Xa inhibitor and aspirin” (Bristol-Myers Squibb Pharma Company, priority 1999, dated 2004)

System: rabbit model of arterial thrombosis
Assay: Electrically induced carotid artery thrombosis in rabbits, carotid blood flow over 90 min
Type: in vivo
Method: Rabbits were anesthetized with ketamine (50 mg/kg i.m.) and xylazine (10 mg/kg i.m.) and then surgically prepared with arterial and venous catheters. An electromagnetic flow probe was placed on a segment of an isolated carotid artery to monitor blood flow. Thrombus formation was induced by electrical stimulation of the carotid artery for 3 min at 4 mA using an external stainless-steel bipolar electrode. Carotid blood flow was measured continuously over a 90-min period to monitor thrombus occlusion. Test agents were infused intravenously 1 hour prior to the electrical stimulation of the carotid artery and continuously during the 90-min period.

[1] = Factor Xa inhibitor alone 0.1 mg/kg/hr i.v. infusion

SMILES	prevention of occlusion of the carotid artery [1]	other results
NCc1cccc(-n2nc(C(F)(F)F)cc2C(=O)Nc2ccc(-c3ccccc3S(N)(=O)=O)cc2)c1.O=C(O)C(F)(F)F [Compound (3)]	did not prevent the occlusion of the artery	–
CS(=O)(=O)c1ccccc1-c1ccc(NC(=O)c2cc(C(F)(F)F)nn2-c2cccc(CN)c2)c(F)c1.O=C(O)C(F)(F)F [Compound (1)]	did not prevent the occlusion of the artery	–
CS(=O)(=O)O.Cc1noc(C)c1S(=O)(=O)N[C@@H](CNC(=O)C[C@H]1CC(c2ccc(C(=N)N)cc2)=NO1)C(=O)O [Compound (4)]	–	prevention of occlusion of the carotid artery (Compound (4) alone 0.03 mg/kg/hr i.v.): did not prevent the occlusion of the artery
CC(=O)Oc1ccccc1C(=O)O [Aspirin]	–	prevention of occlusion of the carotid artery (aspirin alone 1 mg/kg/hr i.v. infusion from 1 hour before stimulation and during 90 min): did not prevent the occlusion of the artery
